Laboratory results taken from patent US20140271756A1, “Controlled Release of Microbiocides” (priority 2013, published 2014).

Experiment: benzyltriazole release flux rate test of membrane in 20 gallons tap water
Assay type: physicochemical
Details: 80° F., 100 hour period
Description: The microbiocide component release flux rate through the membrane is defined as milligrams of microbiocide component released per hour through one square millimeter of membrane or mg./hr./mm^2. Because the release flux rate varies over a wide range and is at least sometimes relatively slow, a test using benzyltriazole has been developed to quantify certain release flux rates that may be useful in accordance with the present invention. This test is conducted as follows.
A tank with twenty (20) gallons of tap water is provided, together with a recirculating heater to give mixing and temperature control. […] Water samples are collected at regular intervals over a 100 hour period and are measured for benzyltriazole content. From these measurements, the benzyltriazole release flux rate of the membrane is determined. To illustrate, suppose 300 mg of benzyltriazole is released through 351 mm^2 of membrane area (exposed through an opening in the outermost wall of the container) in 100 hours. The benzyltriazole release flux rate

With benzyltriazole the “benzyltriazole release flux rate” value (membrane 27 of container 10, cellulose nitrate, average pore size about 20 to about 25 microns) was “about 0.049 mg/hr/min^2” and the “benzyltriazole release flux rate” value (membrane layers 127 of container 110, cellulose nitrate, pore size about 8 microns) was “about 0.025 mg/hr./mm^2”.
